# Measurements from patent publication US8569344B2, “N-piperidinyl acetamide derivatives as calcium channel blockers” (Zalicus Pharmaceuticals Ltd., priority 2008, dated 2013).
# Molecular target: T1, human α1H T-type channels (Homo sapiens, UniProt O95180)
# T1 construct: expressed in transfected cells; host or cells: HEK 293
# Test: T-type calcium channel block, whole cell patch clamp in HEK cells (α1H)
# Assay type: cell-based
# Conditions: HEK cells, patch clamp, mainly non-inactivated protocol; values above 10 μM shown as 10 μM; read-out: T-type Calcium Channel Block α1H IC50
# Protocol: T-type calcium channel blocking activity was assayed in human embryonic kidney cells, HEK 293, stably transfected with the T-type calcium channel subunits. Briefly, cells were cultured in Dulbecco's modified eagle medium (DMEM) supplemented with 10% fetal bovine serum, 200 U/ml penicillin and 0.2 mg/ml streptomycin at 37° C. with 5% CO2. At 85% confluency cells were split with 0.25% trypsin/1 mM EDTA and plated at 10% confluency on glass coverslips. […] Fresh DMEM was supplied and the cells transferred to 28° C./5% CO2. Cells were incubated for 1 to 2 days prior to whole cell recording.
# Standard patch-clamp techniques were employed to identify blockers of T-type currents. Briefly, previously described HEK cell lines stably expressing human α1G, α1H and α1I T-type channels were used for all the recordings (passage #: 4-20, 37° C., 5% CO2). Whole cell patch clamp experiments were performed using an Axopatch 200B amplifier (Axon Instruments, Burlingame, Calif.) linked to a personal computer equipped with pCLAMP software. Data were analyzed using Clampfit (Axon Instruments) and SigmaPlot 4.0 (Jandel Scientific). To obtain T-type currents, plastic dishes containing semi-confluent cells were positioned on the stage of a ZEISS AXIOVERT S100 microscope after replacing the culture medium with external solution (see below). Whole-cell patches were obtained using pipettes (borosilicate glass with filament, O.D.: 1.5 mm, I.D.: 0.86 mm, 10 cm length), fabricated on a SUTTER P-97 puller with resistance values of ˜5 MΩ (see below for internal solution).
# In the non-inactivating protocol, the holding potential is set at −110 mV and with a pre-pulse at −100 mV for 1 second prior to the test pulse at −40 mV for 50 ms.
# Test compounds were dissolved in external solution, 0.1-0.01% DMSO. After ˜10 min rest, they were applied by gravity close to the cell using a WPI microfil tubing. The “non-inactivated” pre-pulse was used to examine the resting block of a compound. The “inactivated” protocol was employed to study voltage-dependent block. […] Values are shown in μM and values above 10 μM are simply represented as 10 μM.
# T1 sequence (O95180 whole entry): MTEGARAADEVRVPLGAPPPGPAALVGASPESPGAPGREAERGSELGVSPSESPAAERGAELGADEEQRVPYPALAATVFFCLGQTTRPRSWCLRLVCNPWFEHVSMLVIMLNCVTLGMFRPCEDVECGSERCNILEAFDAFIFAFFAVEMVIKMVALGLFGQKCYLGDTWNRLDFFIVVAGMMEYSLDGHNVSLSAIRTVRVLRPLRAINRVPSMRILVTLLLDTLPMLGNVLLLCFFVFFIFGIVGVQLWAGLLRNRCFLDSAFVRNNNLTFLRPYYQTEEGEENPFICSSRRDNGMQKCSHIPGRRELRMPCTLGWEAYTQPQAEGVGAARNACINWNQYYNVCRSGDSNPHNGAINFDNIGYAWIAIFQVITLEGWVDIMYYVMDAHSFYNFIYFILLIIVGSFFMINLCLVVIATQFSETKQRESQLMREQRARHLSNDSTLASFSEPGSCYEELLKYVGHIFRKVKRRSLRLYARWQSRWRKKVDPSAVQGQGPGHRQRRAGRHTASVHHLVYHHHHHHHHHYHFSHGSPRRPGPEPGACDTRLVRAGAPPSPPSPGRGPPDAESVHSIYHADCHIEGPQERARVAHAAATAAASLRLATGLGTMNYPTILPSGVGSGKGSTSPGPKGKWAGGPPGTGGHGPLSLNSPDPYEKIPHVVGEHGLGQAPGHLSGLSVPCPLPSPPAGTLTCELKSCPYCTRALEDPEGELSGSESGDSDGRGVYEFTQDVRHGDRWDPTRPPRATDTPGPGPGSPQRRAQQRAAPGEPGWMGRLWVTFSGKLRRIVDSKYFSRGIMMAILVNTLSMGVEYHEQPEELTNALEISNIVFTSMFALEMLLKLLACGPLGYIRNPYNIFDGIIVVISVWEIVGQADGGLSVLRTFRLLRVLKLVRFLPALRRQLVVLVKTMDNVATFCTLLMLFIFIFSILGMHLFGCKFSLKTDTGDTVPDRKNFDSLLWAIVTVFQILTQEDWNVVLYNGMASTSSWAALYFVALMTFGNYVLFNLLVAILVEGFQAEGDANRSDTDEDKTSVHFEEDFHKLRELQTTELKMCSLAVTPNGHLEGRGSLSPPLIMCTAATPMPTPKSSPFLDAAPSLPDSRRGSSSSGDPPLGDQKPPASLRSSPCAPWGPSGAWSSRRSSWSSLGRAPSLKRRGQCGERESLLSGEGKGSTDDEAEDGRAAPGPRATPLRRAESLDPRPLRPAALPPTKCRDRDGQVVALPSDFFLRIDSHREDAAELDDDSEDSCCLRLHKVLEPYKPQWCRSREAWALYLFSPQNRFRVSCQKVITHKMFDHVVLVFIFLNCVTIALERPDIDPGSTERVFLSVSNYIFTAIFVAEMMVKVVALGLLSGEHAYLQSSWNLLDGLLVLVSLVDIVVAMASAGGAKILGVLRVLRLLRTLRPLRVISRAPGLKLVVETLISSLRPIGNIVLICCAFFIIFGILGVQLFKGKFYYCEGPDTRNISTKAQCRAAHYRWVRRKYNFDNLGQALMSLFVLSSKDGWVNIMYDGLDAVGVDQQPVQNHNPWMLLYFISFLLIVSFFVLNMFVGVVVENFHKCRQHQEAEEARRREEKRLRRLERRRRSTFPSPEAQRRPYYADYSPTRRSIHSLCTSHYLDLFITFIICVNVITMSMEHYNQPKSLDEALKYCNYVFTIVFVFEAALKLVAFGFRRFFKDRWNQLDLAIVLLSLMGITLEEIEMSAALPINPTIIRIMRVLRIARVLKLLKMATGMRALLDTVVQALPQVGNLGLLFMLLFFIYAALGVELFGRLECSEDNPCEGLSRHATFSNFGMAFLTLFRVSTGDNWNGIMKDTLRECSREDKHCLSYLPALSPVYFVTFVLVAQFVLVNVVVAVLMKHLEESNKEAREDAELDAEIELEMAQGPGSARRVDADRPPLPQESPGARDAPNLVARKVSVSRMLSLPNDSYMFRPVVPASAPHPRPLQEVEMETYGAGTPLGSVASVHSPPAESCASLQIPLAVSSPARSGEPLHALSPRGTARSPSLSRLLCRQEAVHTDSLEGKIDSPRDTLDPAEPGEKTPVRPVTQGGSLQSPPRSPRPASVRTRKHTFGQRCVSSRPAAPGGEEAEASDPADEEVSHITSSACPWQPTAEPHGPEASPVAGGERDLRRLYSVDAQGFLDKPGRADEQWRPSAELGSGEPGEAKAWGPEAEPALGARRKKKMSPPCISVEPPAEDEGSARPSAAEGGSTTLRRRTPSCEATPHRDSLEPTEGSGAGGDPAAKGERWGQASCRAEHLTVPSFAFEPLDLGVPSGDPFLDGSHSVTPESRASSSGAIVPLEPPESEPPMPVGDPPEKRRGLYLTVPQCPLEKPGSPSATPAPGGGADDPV
row,Structure (SMILES),IC50 [nM]
1,CC1CCCCC1NC(=O)CN1CCC(CNC(=O)c2cc(C(F)(F)F)cc(C(F)(F)F)c2)CC1 (stereo not drawn) [Compound 93],90
2,"CC(C)(C)OC(=O)N1CC(N2CCC(CNC(=O)c3cc(F)cc(Cl)c3)CC2)C1 [Compound 597, tert-buyl 3-(4-((3-chloro-5-fluorobenzamido)methyl)piperidin-1-yl)azetidine-1-carboxylate]",6520
3,"CC(C)(CN1CCC(CNC(=O)c2cc(F)cc(C(F)(F)F)c2)CC1)NS(=O)(=O)C(F)(F)F [Compound 6, 3-fluoro-N-((1-(2-methyl-2-(trifluoromethylsulfonamido)propyl)piperidin-4-yl)methyl)-5-(trifluoromethyl)benzamide]",1320
4,"CC(C)(C)OC(=O)N1CCC(O)(CN2CCC(CNC(=O)c3cc(F)cc(Cl)c3)CC2)CC1 [Compound 598, tert-butyl 4-((4-((3-chloro-5-fluorobenzamido)methyl)piperidin-1-yl)methyl)-4-hydroxypiperidine-1-carboxylate]",1650
5,"O=C(NCC1CCN(C2CN(C(=O)c3cccc(Br)c3)C2)CC1)c1cc(F)cc(Cl)c1 [Compound 602, N-((1-(1-(3-bromobenzoyl)azetidin-3-yl)piperidin-4-yl)methyl)-3-chloro-5-fluorobenzamide]",2410
6,"O=C(CN1CCC(CNC(=O)c2cc(C(F)(F)F)cc(C(F)(F)F)c2)CC1)NC1CCCCC1 [Compound 94, N-((1-(2-(cyclohexylamino)-2-oxoethyl)piperidin-4-yl)methyl)-3,5-bis(trifluoromethyl)benzamide]",60
7,"O=C(NCC1CCN(C2CN(C(=O)c3cccc(Cl)c3)C2)CC1)c1cc(F)cc(Cl)c1 [Compound 606, 3-chloro-N-((1-(1-(3-chlorobenzoyl)azetidin-3-yl)piperidin-4-yl)methyl)-5-fluorobenzamide]",3300
8,"CC(C)(C)C(=O)N1CC(N2CCC(CNC(=O)c3cc(F)cc(Cl)c3)CC2)C1 [Compound 607, 3-chloro-5-fluoro-N-((1-(1-pivaloyl-azetidin-3-yl)piperidin-4-yl)methyl) benzamide]",3170
9,"O=C(NCC1CCN(C2CN(C(=O)c3cc(F)cc(C(F)(F)F)c3)C2)CC1)c1cc(F)cc(Cl)c1 [Compound 604, 3-chloro-5-fluoro-N-((1-(1-(3-fluoro-5-(trifluoromethyl)benzoyl)azetidin-3-yl)piperidin-4-yl)methyl)benzamide]",1900
10,"COC1CCN(C(=O)CN2CCC(CNC(=O)c3cc(C(F)(F)F)cc(C(F)(F)F)c3)CC2)CC1 [Compound 103, N-((1-(2-(4-methoxypiperidin-1-yl)-2-oxoethyl)piperidin-4-yl)methyl)-3,5-bis(trifluoromethyl)benzamide]",1210
11,"CN(C(=O)CN1CCC(CNC(=O)c2cc(Cl)cc(Cl)c2)CC1)C1(C)CCC1 [Compound 592, 3,5-dichloro-N-((1-(2-(methyl(1-methylcyclobutyl)amino)-2-oxoethyl)piperidin-4-yl)methyl) benzamide]",80
12,"CS(=O)(=O)c1cc(C(=O)NCC2CCN(CC(=O)N3CCC[C@@H]3C(F)(F)F)CC2)cc(C(F)(F)F)c1 [Compound 589, (R)-3-(methylsulfonyl)-N-((1-(2-oxo-2-(2-(trifluoromethyl)pyrrolidin-1-yl)ethyl)piperidin-4-yl)methyl)-5-(trifluoromethyl) benzamide]",> 10000
13,"C[C@H]1CC[C@H](NC(=O)CN2CCC(CNC(=O)c3cc(C(F)(F)F)cc(C(F)(F)F)c3)CC2)CC1 [Compound 97, N-((1-(2-((1r,4r)-4-methylcyclo-hexylamino)-2-oxoethyl)piperidin-4-yl)methyl)-3,5-bis(trifluoromethyl) benzamide]",100
14,"O=C(NCC1CCN(CCNC(=O)C2CCCC2)CC1)c1cc(C(F)(F)F)cc(C(F)(F)F)c1 [Compound 62, N-((1-(2-(cyclopentanecarboxamido)ethyl)piperidin-4-yl)methyl)-3,5-bis(trifluoromethyl)benzamide]",230
15,"O=C(NCC1CCN(CC(=O)N2CCC(C(F)(F)F)CC2)CC1)c1cc(C(F)(F)F)cc(C(F)(F)F)c1 [Compound 108, N-((1-(2-oxo-2-(4-(trifluoromethyl)piperidin-1-yl)ethyl)piperidin-4-yl)methyl)-3,5-bis(trifluoromethyl) benzamide]",250
16,"O=C(CCC(F)(F)F)NCCN1CCC(CNC(=O)c2cc(C(F)(F)F)cc(C(F)(F)F)c2)CC1 [Compound 66, N-((1-(2-(4,4,4-trifluorobutanamido)ethyl)piperidin-4-yl)methyl)-3,5-bis(trifluoromethyl) benzamide]",370
17,"CCC1CCCN1C(=O)CN1CCC(CNC(=O)c2cc(C(F)(F)F)cc(C(F)(F)F)c2)CC1 (stereo not drawn) [Compound 105, N-((1-(2-(2-ethylpyrrolidin-1-yl)-2-oxoethyl)piperidin-4-yl)methyl)-3,5-bis(trifluoromethyl)benzamide]",280
18,"CC1(C(=O)N2CC(N3CCC(CNC(=O)c4cc(F)cc(Cl)c4)CC3)C2)CCC(F)(F)CC1 [Compound 611, 3-chloro-N-((1-(1-(4,4-difluoro-1-methylcyclohexanecarbonyl)azetidin-3-yl)piperidin-4-yl)methyl)-5-fluorobenzamide]",290
19,"COc1cc(Cl)cc(C(=O)NCC2CCN(CC(=O)N(C)C(C)(C)C)CC2)c1 [Compound 596, N-((1-(2-(tert-butyl(methyl)amino)-2-oxoethyl)piperidin-4-yl)methyl)-3-chloro-5-methoxy-benzamide]",160
20,"CC(C)(CN1CCC(CNC(=O)c2cc(F)cc(C(F)(F)F)c2)CC1)NS(=O)(=O)C1CC1 [Compound 8, N-((1-(2-(cyclopropanesulfonamido)-2-methylpropyl)piperidin-4-yl)methyl)-3-fluoro-5-(trifluoromethyl)benzamide]",2420

# Now from value to molecule:
row,IC50 [nM],Structure (SMILES)
1,770,"O=C(NCC1CCN(C2CN(C(=O)C3(C(F)(F)F)CCC3)C2)CC1)c1cc(F)cc(Cl)c1 [Compound 610, 3-chloro-5-fluoro-N-((1-(1-(1-(trifluoromethyl)cyclobutanecarbonyl)azetidin-3-yl)piperidin-4-yl)methyl) benzamide]"
2,220,"CC(C)(C)C(=O)NCCN1CCC(CNC(=O)c2cc(C(F)(F)F)cc(C(F)(F)F)c2)CC1 [Compound 60, N-((1-(2-pivalamidoethyl)piperidin-4-yl)methyl)-3,5-his(trifluoromethyl)benzamide]"
3,> 10000,"O=C(NCC1CCN(CC(=O)N2CCC(O)CC2)CC1)c1cc(C(F)(F)F)cc(C(F)(F)F)c1 [Compound 102, N-((1-(2-(4-hydroxypiperidin-1-yl)-2-oxoethyl)piperidin-4-yl)methyl)-3,5-bis(trifluoromethyl)benzamide]"
4,1870,"O=C(NCC1CCN(C2CN(C(=O)c3cc(Cl)cc(Cl)c3)C2)CC1)c1cc(F)cc(Cl)c1 [Compound 601, 3-chloro-N-((1-(1-(3,5-dichlorobenzoyl)azetidin-3-yl)piperidin-4-yl)methyl)-5-fluoro-benzamide]"
5,> 10000,"CN1CCC(C(=O)NCCN2CCC(CNC(=O)c3cc(C(F)(F)F)cc(C(F)(F)F)c3)CC2)CC1 [Compound 61, N-(2-(4-((3,5-bis(trifluoromethyl)benzamido)methyl)piperidin-1-yl)ethyl)-1-methylpiperidin-4-carboxamide]"
6,> 10000,"O=C(CN1CCC(CNC(=O)c2cc(C(F)(F)F)cc(C(F)(F)F)c2)CC1)NC1CC1 [Compound 95, N-((1-(2-(cyclopropylamino)-2-oxoethyl)piperidin-4-yl)methyl)-3,5-bis(trifluoromethyl)benzamide]"
7,> 10000,"O=C(NCC1CCN(CCN2CCCC2=O)CC1)c1cc(F)cc(C(F)(F)F)c1 [Compound 487, 3-fluoro-N-((1-(2-(2-oxopyrrolidin-1-yl)ethyl)piperidin-4-yl)methyl)-5-(trifluoromethyl)benzamide]"
8,210,"CC1CCCN(C(=O)CN2CCC(CNC(=O)c3cc(C(F)(F)F)cc(C(F)(F)F)c3)CC2)C1 (stereo not drawn) [Compound 99, N-((1-(2-(3-methylpiperidin-1-yl)-2-oxoethyl)piperidin-4-yl)methyl)-3,5-bis(trifluoromethyl)benzamide]"
9,> 10000,"O=C(CC1CCN(C(=O)C2(O)CCNCC2)CC1)Nc1cc(C(F)(F)F)cc(C(F)(F)F)c1 [Compound 157, N-(3,5-bis(trifluoromethyl)phenyl)-2-(1-(4-hydroxypiperidine-4-carbonyl)piperidin-4-yl)acetamide]"
10,3600,"O=C(NCC1CCN(CC(=O)N2CCCC(O)C2)CC1)c1cc(C(F)(F)F)cc(C(F)(F)F)c1 (stereo not drawn) [Compound 98, N-((1-(2-(3-hydroxypiperidin-1-yl)-2-oxoethyl)piperidin-4-yl)methyl)-3,5-bis(trifluoromethyl)benzamide]"
